Experiments:
ATM = target: T1, ATM (Homo sapiens, UniProt Q13315); assay: ATM kinase assay (Phos-tag gel); type: biochemical; conditions: 200 μM 1938
T1 construct: made in house
Protocol: (§1) 133 protein kinases and 7 lipid kinases were counterscreened, with […] used at 1 μM, using the Adapta, Lantha and Z-LYTE assays (SelectScreen Kinase Profiling Service; Thermofisher—experimental details of these assays can be found here: https://www.thermofisher.com/uk/en/home/industrial/pharma-biopharma/drug-discovery-development/target-and-lead-identification-and-validation/kinasebiology/kinase-activity-assays.html. The tree representation in KinMap generated courtesy of Cell Signaling Technology, Inc. (www.cellsignal.com). mTORC1 (mTOR/RAPTOR/LST8) protein complex and ATM kinase and substrates were produced as previously described (Anandapadamanaban, M. et al. Science (New York, NY 366, 203-210 (2019); Baretic, D. et al. Sci Adv 3, e1700933 (2017). Screening of 1938 was conducted using SuperSep Phos-Tag 50 μmol/l 100×100×6.6 mm 17-well (192-18001/199-18011) gels. For ATM assays, 100 nM ATM was incubated for 30 min at 30° C. with 5 μM GST-p53 and 1 mM ATP, in the absence or presence of 200 μM 1938 in ATM Kinase Buffer (50 mM HEPES pH 7.5, 100 mM NaCl, 10% glycerol, 2 mM […], 5 mM MgCl2). […] Gels were then stained using InstantBlue™ Coomassie stain, and then quantified using BioRad Image Lab Software. […]

LCK = LCK (Homo sapiens, UniProt P06239); assay: SelectScreen kinase profiling, LCK; type: biochemical; conditions: 1 μM of 1938, 50 μM ATP
Chain of LCK (P06239 whole entry): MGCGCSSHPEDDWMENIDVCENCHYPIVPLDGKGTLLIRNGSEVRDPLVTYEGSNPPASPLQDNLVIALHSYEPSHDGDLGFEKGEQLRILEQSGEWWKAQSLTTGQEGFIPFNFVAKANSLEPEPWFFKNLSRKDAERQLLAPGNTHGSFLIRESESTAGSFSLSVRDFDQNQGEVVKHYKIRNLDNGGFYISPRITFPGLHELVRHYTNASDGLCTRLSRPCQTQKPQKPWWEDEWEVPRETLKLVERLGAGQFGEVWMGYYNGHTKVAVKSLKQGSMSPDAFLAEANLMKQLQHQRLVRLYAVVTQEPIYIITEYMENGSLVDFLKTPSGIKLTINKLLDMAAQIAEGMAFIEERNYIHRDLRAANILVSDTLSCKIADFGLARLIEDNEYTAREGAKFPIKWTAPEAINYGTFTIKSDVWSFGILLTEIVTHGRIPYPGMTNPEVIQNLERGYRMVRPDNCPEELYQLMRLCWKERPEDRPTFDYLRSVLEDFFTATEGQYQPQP
Protocol: as §1

[1] = system: PI3Kα-WT and PI3Kα-KO MEFs; assay: Mass spectrometry-based phosphoproteomics in MEFs; type: cell-based, mouse; conditions: for differentially phosphorylated peptides/sites: PI3Kα-WT MEFs
Protocol: The inventors next investigated the impact of 1938 on cell signalling in an unbiased manner using phosphoproteomics. […] The inventors quantified 10,611 phosphosites from 3,093 proteins of which 9100, 1420 and 91 were pSer, pThr and pTyr residues, respectively (FIG. 16/Extended Data FIG. 8a). […] Compared to vehicle-treated cells, insulin treatment of PI3Kα-WT MEFs induced differential phosphorylation of 11 and 18 sites at 15 min and 4 h, respectively (FIG. 16/Extended Data FIG. 8c). […] Furthermore, approximately half of the 1938-controlled phosphosites have been previously reported (in PhosphoSitePlus) to be regulated by insulin, IGF-1, PI3K inhibition or AKT inhibition, with some linked to regulation by mTOR or PDK1 (FIG. 3gi,ii).
PI3Kα-WT and PI3Kα-KO MEFs, grown in 15 cm dishes, were serum-starved overnight in DMEM with 1% penicillin-streptomycin and stimulated by the addition of 0.05% DMSO, […] 1938 in final 0.05% DMSO or 100 nM insulin (Sigma, 15016) for 15 min or 4 h. Cells were lysed in […] urea lysis buffer [50 mM triethylammonium bicarbonate, 8 M urea, cOmplete™, EDTA-free protease inhibitor cocktail (1:50 dilution) (Roche, 11873580001), 1 PhosSTOP tablet (Roche, 4906845001), 1 mM sodium orthovanadate] and lysates sonicated until clear for ˜10 min with cooling breaks on ice. Protein concentration was measured using a BCA protein assay (Pierce #23227). 300 μg of protein was reduced with 5 mM Tris(2-carboxyethyl)phosphine hydrochloride (Sigma, C4706) at 37° C. for 20 min and alkylated using 10 mM 2-chloroacetamide (Sigma, 22790) for 20 min at room temperature in the dark. Proteins were digested with LysC for 3.5 h at 30° C. […] Fifty percent of each sample was analysed as 10 μl injections. […] Precursor ions were measured in a data-dependent mode in the orbitrap analyser at a resolution of 70,000 and a target value of 3e6 ions. The ten most intense ions from each MS1 scan were isolated, fragmented in the HCD cell, and measured in the Orbitrap at a resolution of 17,500. […]

T1 sequence (Q13315 whole entry, species assumed): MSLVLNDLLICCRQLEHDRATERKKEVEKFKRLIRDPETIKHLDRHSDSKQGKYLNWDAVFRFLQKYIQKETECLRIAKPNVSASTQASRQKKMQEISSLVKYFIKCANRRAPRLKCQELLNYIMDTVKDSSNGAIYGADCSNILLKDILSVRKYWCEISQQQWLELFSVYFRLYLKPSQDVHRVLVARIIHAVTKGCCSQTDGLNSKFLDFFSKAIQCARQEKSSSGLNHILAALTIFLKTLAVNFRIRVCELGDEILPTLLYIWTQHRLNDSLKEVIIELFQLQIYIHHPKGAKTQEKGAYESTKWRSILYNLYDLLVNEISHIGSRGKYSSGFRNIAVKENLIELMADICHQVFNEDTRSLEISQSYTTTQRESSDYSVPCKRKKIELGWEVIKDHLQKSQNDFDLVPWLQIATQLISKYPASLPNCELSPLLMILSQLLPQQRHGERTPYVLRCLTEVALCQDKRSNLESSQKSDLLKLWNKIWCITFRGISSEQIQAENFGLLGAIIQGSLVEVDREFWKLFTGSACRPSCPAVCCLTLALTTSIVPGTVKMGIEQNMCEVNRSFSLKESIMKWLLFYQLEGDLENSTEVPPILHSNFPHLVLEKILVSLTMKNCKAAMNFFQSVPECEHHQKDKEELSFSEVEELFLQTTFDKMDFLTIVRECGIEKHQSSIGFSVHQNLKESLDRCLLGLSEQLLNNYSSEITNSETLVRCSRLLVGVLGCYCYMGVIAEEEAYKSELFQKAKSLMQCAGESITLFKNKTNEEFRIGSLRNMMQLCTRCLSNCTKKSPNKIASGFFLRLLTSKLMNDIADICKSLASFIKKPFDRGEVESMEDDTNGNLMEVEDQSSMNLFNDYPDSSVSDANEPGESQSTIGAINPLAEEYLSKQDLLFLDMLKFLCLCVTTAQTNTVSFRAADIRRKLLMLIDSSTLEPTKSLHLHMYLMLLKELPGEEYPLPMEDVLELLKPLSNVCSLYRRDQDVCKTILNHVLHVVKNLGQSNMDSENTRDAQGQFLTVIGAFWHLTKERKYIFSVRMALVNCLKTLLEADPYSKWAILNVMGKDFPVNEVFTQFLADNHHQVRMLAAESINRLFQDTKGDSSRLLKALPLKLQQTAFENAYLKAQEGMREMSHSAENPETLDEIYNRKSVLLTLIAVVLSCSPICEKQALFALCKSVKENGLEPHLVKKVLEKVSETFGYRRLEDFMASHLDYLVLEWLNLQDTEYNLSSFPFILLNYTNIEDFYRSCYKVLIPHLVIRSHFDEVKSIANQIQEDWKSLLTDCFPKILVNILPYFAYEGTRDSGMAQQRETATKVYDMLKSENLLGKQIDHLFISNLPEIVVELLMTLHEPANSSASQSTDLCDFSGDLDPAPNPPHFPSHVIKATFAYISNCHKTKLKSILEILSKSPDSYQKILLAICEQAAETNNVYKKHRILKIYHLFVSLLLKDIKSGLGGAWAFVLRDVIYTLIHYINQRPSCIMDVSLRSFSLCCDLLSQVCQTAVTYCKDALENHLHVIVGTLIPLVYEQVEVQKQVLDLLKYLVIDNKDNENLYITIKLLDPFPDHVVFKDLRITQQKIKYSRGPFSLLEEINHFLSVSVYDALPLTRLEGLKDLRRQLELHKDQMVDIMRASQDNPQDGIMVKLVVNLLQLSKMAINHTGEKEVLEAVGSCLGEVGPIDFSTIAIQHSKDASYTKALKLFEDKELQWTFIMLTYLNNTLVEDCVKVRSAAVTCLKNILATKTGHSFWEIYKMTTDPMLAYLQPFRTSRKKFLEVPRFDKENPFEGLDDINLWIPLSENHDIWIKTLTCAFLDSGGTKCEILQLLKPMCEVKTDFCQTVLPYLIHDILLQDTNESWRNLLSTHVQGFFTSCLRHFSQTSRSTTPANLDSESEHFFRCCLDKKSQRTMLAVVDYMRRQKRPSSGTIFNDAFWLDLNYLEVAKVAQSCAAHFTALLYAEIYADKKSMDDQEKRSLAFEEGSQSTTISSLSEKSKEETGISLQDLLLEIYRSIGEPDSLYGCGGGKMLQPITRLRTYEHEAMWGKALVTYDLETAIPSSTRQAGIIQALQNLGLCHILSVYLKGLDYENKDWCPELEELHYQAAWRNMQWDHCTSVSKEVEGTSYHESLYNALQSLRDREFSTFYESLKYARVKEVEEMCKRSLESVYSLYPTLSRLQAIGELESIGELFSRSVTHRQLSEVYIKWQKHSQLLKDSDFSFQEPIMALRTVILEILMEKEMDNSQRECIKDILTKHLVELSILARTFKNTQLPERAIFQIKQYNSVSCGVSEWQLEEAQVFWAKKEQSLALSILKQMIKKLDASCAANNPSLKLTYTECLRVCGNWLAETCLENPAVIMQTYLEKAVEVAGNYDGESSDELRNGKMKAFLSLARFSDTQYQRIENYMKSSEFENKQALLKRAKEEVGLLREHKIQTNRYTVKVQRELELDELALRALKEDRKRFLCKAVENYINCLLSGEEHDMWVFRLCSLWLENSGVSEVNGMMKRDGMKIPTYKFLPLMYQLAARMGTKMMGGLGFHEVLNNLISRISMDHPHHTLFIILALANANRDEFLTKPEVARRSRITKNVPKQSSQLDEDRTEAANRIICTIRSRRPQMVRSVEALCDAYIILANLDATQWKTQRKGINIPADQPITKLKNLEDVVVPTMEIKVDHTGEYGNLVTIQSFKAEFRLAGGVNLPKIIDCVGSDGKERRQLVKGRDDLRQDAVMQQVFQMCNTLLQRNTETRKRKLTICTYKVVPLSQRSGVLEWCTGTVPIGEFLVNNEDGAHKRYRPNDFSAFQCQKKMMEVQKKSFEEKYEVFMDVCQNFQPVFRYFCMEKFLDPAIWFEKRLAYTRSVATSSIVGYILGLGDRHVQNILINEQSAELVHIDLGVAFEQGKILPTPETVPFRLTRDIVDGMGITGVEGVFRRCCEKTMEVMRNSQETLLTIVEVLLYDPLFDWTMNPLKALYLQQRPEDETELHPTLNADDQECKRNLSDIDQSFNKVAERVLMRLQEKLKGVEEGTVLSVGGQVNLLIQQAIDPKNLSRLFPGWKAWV

activity of ATM (ATM): did not affect
inhibition of LCK (LCK): 58%
SMILES: CCN1CCN(c2ccc(Nc3cc(Nc4cccc5c4N(C(C)=O)CC5)ccn3)cc2)CC1 [Example 1938]
signalling impact in PI3Kα-KO MEFs ([1]; PI3Kα-KO MEFs): little signalling impact
differentially phosphorylated peptides/sites ([1]; 15 min treatment): 27
differentially phosphorylated peptides/sites ([1]; 4 h treatment): 50

Source: patent publication US20250263404A1, “AMINOPYRIDINES AS ACTIVATORS OF PI3 KINASE” (UCL Business Ltd, priority 2021, published 2025)
